Laboratory results: PubChem BioAssay (NCI)
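Assay format: 96-well plates, 48-hour exposure. Here, GI50 denotes the concentration required for 50% inhibition of growth. Definition used: TGI = concentration required for complete inhibition of growth.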

Legend:
Assay in all cases: DTP human tumour cell line panel, 48 h
MDA-MB-231 breast = system: MDA-MB-231 breast
T-47D breast = system: T-47D breast
M14 melanoma = system: M14 melanoma
SF-268 CNS = system: SF-268 CNS
HCT-116 colon = system: HCT-116 colon
UACC-62 melanoma = system: UACC-62 melanoma
HS 578T breast = system: HS 578T breast
EKVX NSCLC = system: EKVX NSCLC
SNB-19 CNS = system: SNB-19 CNS
OVCAR-4 ovarian = system: OVCAR-4 ovarian

## O=C1Nc2ccccc2/C1=C/c1cn(C(=O)c2c(Cl)cccc2Cl)c2ccccc12
MDA-MB-231 breast
  GI50: 3.09 µM
  TGI: 16.8 µM
T-47D breast
  GI50: 4.13 µM
  TGI: 93 µM
M14 melanoma
  GI50: 2.34 µM
  TGI: 8.19 µM
SF-268 CNS
  GI50: 2.38 µM
  TGI: 10.6 µM
HCT-116 colon
  GI50: 1.67 µM
  TGI: 3.38 µM
UACC-62 melanoma
  GI50: 4.8 µM
  TGI: 19.9 µM
HS 578T breast
  GI50: 2.17 µM
  TGI: 8.98 µM
EKVX NSCLC
  GI50: 2.83 µM
  TGI: 16.3 µM
SNB-19 CNS
  GI50: 7.32 µM
  TGI: > 100 µM

## O[C@@H]1CCCN1Cc1cc2cc3c(cc2c2cc(OCc4ccccc4)ccc12)OCO3
MDA-MB-231 breast
  GI50: 2.18 µM
  TGI: 5.59 µM
T-47D breast
  GI50: 2.93 µM
  TGI: 11.7 µM
M14 melanoma
  GI50: 1.81 µM
  TGI: 3.35 µM
OVCAR-4 ovarian
  GI50: 5.45 µM
  TGI: 20.3 µM
SF-268 CNS
  GI50: 4.78 µM
  TGI: 20.1 µM
HCT-116 colon
  GI50: 2.1 µM
  TGI: 5.16 µM
UACC-62 melanoma
  GI50: 1.97 µM
  TGI: 3.68 µM
HS 578T breast
  GI50: 2.82 µM
  TGI: 9.07 µM
EKVX NSCLC
  GI50: 11.6 µM
  TGI: 27.3 µM
SNB-19 CNS
  GI50: 6.23 µM
  TGI: 21.4 µM

## Oc1ccccc1Nc1nc2ccccc2c2occc12
MDA-MB-231 breast
  GI50: 10.1 µM
  TGI: 22.3 µM
T-47D breast
  GI50: 10.1 µM
  TGI: 24.1 µM
M14 melanoma
  GI50: 11.6 µM
  TGI: 23.8 µM
OVCAR-4 ovarian
  GI50: 10.8 µM
  TGI: 31.4 µM
SF-268 CNS
  GI50: 8.74 µM
  TGI: 28.6 µM
HCT-116 colon
  GI50: 14.3 µM
  TGI: 27.4 µM
UACC-62 melanoma
  GI50: 10.3 µM
  TGI: 21.9 µM
HS 578T breast
  GI50: 3.9 µM
  TGI: 20.8 µM
EKVX NSCLC
  GI50: 11.3 µM
  TGI: 26.2 µM
SNB-19 CNS
  GI50: 7.22 µM
  TGI: 20.3 µM

## N#CCC12CC=CCC1=C(O)C(=O)c1ccc(O)cc12 (configuration not stated)
MDA-MB-231 breast
  TGI: > 100 µM
T-47D breast
  TGI: > 100 µM
M14 melanoma
  TGI: > 100 µM
OVCAR-4 ovarian
  TGI: > 100 µM
SF-268 CNS
  TGI: > 100 µM
HCT-116 colon
  TGI: > 100 µM
UACC-62 melanoma
  TGI: > 100 µM
HS 578T breast
  TGI: > 100 µM
EKVX NSCLC
  TGI: > 100 µM
SNB-19 CNS
  TGI: > 100 µM

## Cc1ccc(NSc2ccccc2[N+](=O)[O-])cc1
MDA-MB-231 breast
  GI50: 1.06 µM
  TGI: 15.5 µM
T-47D breast
  GI50: 0.444 µM
  TGI: 40.4 µM
M14 melanoma
  GI50: 0.146 µM
  TGI: 15.3 µM
OVCAR-4 ovarian
  GI50: 6.26 µM
  TGI: 23.2 µM
SF-268 CNS
  GI50: 1.15 µM
  TGI: 19.7 µM
HCT-116 colon
  GI50: 0.48 µM
  TGI: 12.1 µM
UACC-62 melanoma
  GI50: 0.157 µM
  TGI: 17 µM
HS 578T breast
  GI50: 0.921 µM
  TGI: 13.8 µM
EKVX NSCLC
  GI50: 2.89 µM
  TGI: 22.4 µM
SNB-19 CNS
  GI50: 1.22 µM
  TGI: 19.6 µM

## O=c1[nH]ccc2nc(-c3ccc(CN4CCC(c5nc(-c6ccccn6)n[nH]5)CC4)cc3)c(-c3ccccc3)cc12
MDA-MB-231 breast
  GI50: 19.2 µM
  TGI: > 75.8 µM
T-47D breast
  TGI: 0.0729 µM
M14 melanoma
  GI50: 22.2 µM
  TGI: > 100 µM
OVCAR-4 ovarian
  GI50: > 80.7 µM
  TGI: > 100 µM
SF-268 CNS
  GI50: 25.9 µM
  TGI: > 100 µM
HCT-116 colon
  GI50: 17.2 µM
  TGI: > 92.7 µM
UACC-62 melanoma
  GI50: 16.3 µM
  TGI: > 86.6 µM
HS 578T breast
  GI50: 0.592 µM
  TGI: 16.5 µM
EKVX NSCLC
  GI50: 15.8 µM
  TGI: > 100 µM
SNB-19 CNS
  GI50: 17.1 µM
  TGI: > 100 µM
